From publication PMC10734772 (Turkish Journal of Chemistry, 2021)

Key:
Format in all cases: cell-based
Nalm-6 = assay: MTT assay, Nalm-6 cells; conditions: Homo sapiens, 24 h
[1] = MTT assay, Hek293T non-leukemic control cells; conditions: human, read-out: Viability rate
[2] = test system: K562, Nalm-6, Molt-4, Reh, Jurkat, Hek293T cell lines; assay: MTT assay, overall judgement over all cell lines; conditions: overall judgement in words; for 6 and 10: on all cell lines, except Reh
In short: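 MTT viability assay run across a range of compound concentrations in leukemic lines, BCR-ABL positive K562 and BCR-ABL negative Nalm-6, Molt-4, Reh, Jurkat, plus non-leukemic Hek293T. Viability rate calculated per concentration.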

Jurkat = assay: MTT assay, Jurkat cells; conditions: Homo sapiens, 24 h, read-out: Viability rate
Reh = assay: MTT assay, Reh cells; conditions: Homo sapiens, 24 h, read-out: Viability rate
Molt-4 = assay: MTT assay, Molt-4 cells
K562 = assay: MTT assay, K562 cells; conditions: Homo sapiens, 24 h
Method: K562, Jurkat and Molt-4 cell lines were seeded as 4x10^5/ml, Reh and Nalm-6 cell lines were seeded 5x10^5/ml, Hek293T cell line was seed as 2x10^5/ml.
MTT assay is a 3-day test. On the first day, cell count was performed in Bio Rad TC-20 device with the help of trypan blue, each cell line was prepared by diluting to the specified concentrations and seeded in a 96-well plate as 100μL to each well and incubated for 1 day.
On the second day, stock solutions were subsequently diluted to various concentrations (0.3–200 μM) with related medium prior to experiments. Specified concentrations of the compounds were seeded in a 96-well plate as 100μL to each well and incubated for 24 h.
After incubation (on the third day), to precipitate leukemia cells, the cell plate was centrifuged at 1500 rpm for 5 min. […] The 50 μl of supernatant was discarded from each well and 100 μl of DMSO was added to dissolve the formazan. Plates were shaken for 45 min to dissolve the dye. Then the optical density of each well was measured by using Thermo VarioSkan Flush Multimode Reader Quantum ST5-1100 at 570 nm wavelength.
Subsequently, viability rate of the cells at each concentration, as percentage, was determined by following formula (1):
Viability rate (%)=100-[(OD(control)-OD(sample))/OD(control)×100].OD=Optical Density
The IC50 values were calculated by using GraphPad Prism. All the data presented as the mean of 6 replicates. […] Statistical analysis was performed using dose-response inhibition, log(inhibitor) vs response-variable slope, least squares (ordinary) fit.

SMILES: COc1ccc(CN2CCN(Cc3ccc(C(=O)Nc4ccc(C)c(Nc5cc(C)ccn5)c4)cc3)CC2)c(OC)c1OC [Compound 10, N-(4-Methyl-3-((4-methylpyridin-2-yl)amino)phenyl)-4-((4-(2,3,4-trimethoxybenzyl)piperazin-1-yl)methyl)benzamide]
- viability at 0.3 µM (Nalm-6; Nalm-6, 0.3 μM, MTT, read-out: Viability rate): 92.7 ± 0.08%
- viability at 0.5 µM (Nalm-6; Nalm-6, 0.5 μM, MTT, read-out: Viability rate): 88.6 ± 0.06%
- viability at 1 µM (Nalm-6; Nalm-6, 1 μM, MTT, read-out: Viability rate): 87.3 ± 0.07%
- viability at 3 µM (Nalm-6; Nalm-6, 3 μM, MTT, read-out: Viability rate): 86.5 ± 0.02%
- viability at 5 µM (Nalm-6; Nalm-6, 5 μM, MTT, read-out: Viability rate): 85.5 ± 0.06%
- viability at 10 µM (Nalm-6; Nalm-6, 10 μM, MTT, read-out: Viability rate): 84.8 ± 0.08%
- viability at 15 µM (Nalm-6; Nalm-6, 15 μM, MTT, read-out: Viability rate): 82.2 ± 0.08%
- viability at 20 µM (Nalm-6; Nalm-6, 20 μM, MTT, read-out: Viability rate): 71.9 ± 0.07%
- viability at 30 µM (Nalm-6; Nalm-6, 30 μM, MTT, read-out: Viability rate): 54.2 ± 0.07%
- viability at 50 µM (Nalm-6; Nalm-6, 50 μM, MTT, read-out: Viability rate): 29.8 ± 0.01%
- viability at 70 µM (Nalm-6; Nalm-6, 70 μM, MTT, read-out: Viability rate): 28.8 ± 0.01%
- viability at 100 µM (Nalm-6; Nalm-6, 100 μM, MTT, read-out: Viability rate): 28.7 ± 0.01%
- viability at 150 µM (Nalm-6; Nalm-6, 150 μM, MTT, read-out: Viability rate): 28.5 ± 0.01%
- viability at 200 µM (Nalm-6; Nalm-6, 200 μM, MTT, read-out: Viability rate): 28.7%
- IC50 (Nalm-6; Nalm-6, MTT, range 0.3–200 μM, six replicates): 28.7 µM
- viability at 24 h, 0.3 µM ([1]; Hek293T cells (non-leukemic control cell line), 0.3 μM): 82.8 ± 0.02%
- viability at 24 h, 0.5 µM ([1]; Hek293T cells (non-leukemic control cell line), 0.5 μM): 78.2 ± 0.01%
- viability at 24 h, 3 µM ([1]; Hek293T cells (non-leukemic control cell line), 3 μM): 80.4 ± 0.02%
- viability at 24 h, 5 µM ([1]; Hek293T cells (non-leukemic control cell line), 5 μM): 79.1 ± 0.01%
- viability at 24 h, 10 µM ([1]; Hek293T cells (non-leukemic control cell line), 10 μM): 80.2 ± 0.02%
- viability at 24 h, 15 µM ([1]; Hek293T cells (non-leukemic control cell line), 15 μM): 81.4 ± 0.01%
- viability at 24 h, 20 µM ([1]; Hek293T cells (non-leukemic control cell line), 20 μM): 80.8 ± 0.01%
- viability at 24 h, 30 µM ([1]; Hek293T cells (non-leukemic control cell line), 30 μM): 82.2 ± 0.03%
- viability at 24 h, 50 µM ([1]; Hek293T cells (non-leukemic control cell line), 50 μM): 79.2 ± 0.03%
- viability at 24 h, 70 µM ([1]; Hek293T cells (non-leukemic control cell line), 70 μM): 80.2 ± 0.02%
- viability at 24 h, 100 µM ([1]; Hek293T cells (non-leukemic control cell line), 100 μM): 80.7 ± 0.01%
- viability at 24 h, 150 µM ([1]; Hek293T cells (non-leukemic control cell line), 150 μM): 80 ± 0.01%
- viability at 24 h, 200 µM ([1]; Hek293T cells (non-leukemic control cell line), 200 μM): 81 ± 0.02%
- viability at 24 h, 1 µM ([1]; Hek293T cells, 1 μM): 78.1 ± 0.01%
- anticancer activity according to MTT assay results [2]: high anticancer activity
- viability at 0.3 µM (Jurkat; 0.3 μM): 73 ± 0.1%
- viability at 0.5 µM (Jurkat; 0.5 μM): 71.7 ± 0.1%
- viability at 1 µM (Jurkat; 1 μM): 70.9 ± 0.08%
- viability at 3 µM (Jurkat; 3 μM): 69.4 ± 0.03%
- viability at 5 µM (Jurkat; 5 μM): 68.7 ± 0.05%
- viability at 10 µM (Jurkat; 10 μM): 68.1 ± 0.09%
- viability at 15 µM (Jurkat; 15 μM): 67.5 ± 0.07%
- viability at 20 µM (Jurkat; 20 μM): 64.1 ± 0.15%
- viability at 30 µM (Jurkat; 30 μM): 61.7 ± 0.07%
- viability at 50 µM (Jurkat; 50 μM): 61.4 ± 0.05%
- viability at 70 µM (Jurkat; 70 μM): 50.5 ± 0.02%
- viability at 100 µM (Jurkat; 100 μM): 38.1 ± 0.2%
- viability at 150 µM (Jurkat; 150 μM): 35.9 ± 0.12%
- viability at 200 µM (Jurkat; 200 μM): 32.5 ± 0.03%
- viability at 0.3 µM (Reh; 0.3 μM): 93.4 ± 0.02%
- viability at 0.5 µM (Reh; 0.5 μM): 92.4 ± 0.02%
- viability at 1 µM (Reh; 1 μM): 92.4 ± 0.01%
- viability at 3 µM (Reh; 3 μM): 92.6 ± 0.02%
- viability at 5 µM (Reh; 5 μM): 92.8 ± 0.02%
- viability at 10 µM (Reh; 10 μM): 92.3 ± 0.03%
- viability at 15 µM (Reh; 15 μM): 92.6 ± 0.02%
- viability at 20 µM (Reh; 20 μM): 91.8 ± 0.01%
- viability at 30 µM (Reh; 30 μM): 65.6 ± 0.02%
- viability at 50 µM (Reh; 50 μM): 59.5 ± 0.03%
- viability at 70 µM (Reh; 70 μM): 59.1 ± 0.02%
- viability at 100 µM (Reh; 100 μM): 59.6 ± 0.03%
- viability at 150 µM (Reh; 150 μM): 57.4 ± 0.03%
- viability at 200 µM (Reh; 200 μM): 55.2 ± 0.03%
- viability at 0.3 µM (Molt-4; Homo sapiens, MOLT-4, 24 h, Molt-4, 0.3 μM, read-out: Viability rate): 87.9 ± 0.03%
- viability at 0.5 µM (Molt-4; Homo sapiens, MOLT-4, 24 h, Molt-4, 0.5 μM, read-out: Viability rate): 86.8 ± 0.02%
- viability at 1 µM (Molt-4; Homo sapiens, MOLT-4, 24 h, Molt-4, 1 μM, read-out: Viability rate): 87.7 ± 0.01%
- viability at 3 µM (Molt-4; Homo sapiens, MOLT-4, 24 h, Molt-4, 3 μM, read-out: Viability rate): 86.5 ± 0.02%
- viability at 5 µM (Molt-4; Homo sapiens, MOLT-4, 24 h, Molt-4, 5 μM, read-out: Viability rate): 86.2 ± 0.08%
- viability at 10 µM (Molt-4; Homo sapiens, MOLT-4, 24 h, Molt-4, 10 μM, read-out: Viability rate): 89.1 ± 0.03%
- viability at 15 µM (Molt-4; Homo sapiens, MOLT-4, 24 h, Molt-4, 15 μM, read-out: Viability rate): 88.1 ± 0.04%
- viability at 20 µM (Molt-4; Homo sapiens, MOLT-4, 24 h, Molt-4, 20 μM, read-out: Viability rate): 77 ± 0.04%
- viability at 30 µM (Molt-4; Homo sapiens, MOLT-4, 24 h, Molt-4, 30 μM, read-out: Viability rate): 65.3 ± 0.03%
- viability at 50 µM (Molt-4; Homo sapiens, MOLT-4, 24 h, Molt-4, 50 μM, read-out: Viability rate): 52.1 ± 0.03%
- viability at 70 µM (Molt-4; Homo sapiens, MOLT-4, 24 h, Molt-4, 70 μM, read-out: Viability rate): 42.8 ± 0.01%
- viability at 100 µM (Molt-4; Homo sapiens, MOLT-4, 24 h, Molt-4, 100 μM, read-out: Viability rate): 40.4 ± 0.01%
- viability at 150 µM (Molt-4; Homo sapiens, MOLT-4, 24 h, Molt-4, 150 μM, read-out: Viability rate): 40 ± 0.01%
- viability at 200 µM (Molt-4; Homo sapiens, MOLT-4, 24 h, Molt-4, 200 μM, read-out: Viability rate): 40.7 ± 0.01%
- Viability rate (Molt-4; Molt-4, 200 μM, 24 h, 200 µM): < 50%
- viability at 0.3 µM (K562; K562, 0.3 μM, MTT, read-out: Viability rate): 104.1 ± 0.07%
- viability at 0.5 µM (K562; K562, 0.5 μM, MTT, read-out: Viability rate): 103.4 ± 0.06%
- viability at 1 µM (K562; K562, 1 μM, MTT, read-out: Viability rate): 98.9 ± 0.05%
- viability at 3 µM (K562; K562, 3 μM, MTT, read-out: Viability rate): 98.7 ± 0.04%
- viability at 5 µM (K562; K562, 5 μM, MTT, read-out: Viability rate): 98.6 ± 0.06%
- viability at 10 µM (K562; K562, 10 μM, MTT, read-out: Viability rate): 98.9 ± 0.09%
- viability at 15 µM (K562; K562, 15 μM, MTT, read-out: Viability rate): 98.6 ± 0.08%
- viability at 20 µM (K562; K562, 20 μM, MTT, read-out: Viability rate): 79.2 ± 0.06%
- viability at 30 µM (K562; K562, 30 μM, MTT, read-out: Viability rate): 78.9 ± 0.1%
- viability at 50 µM (K562; K562, 50 μM, MTT, read-out: Viability rate): 56.1 ± 0.03%
- viability at 70 µM (K562; K562, 70 μM, MTT, read-out: Viability rate): 38.5 ± 0.02%
- viability at 100 µM (K562; K562, 100 μM, MTT, read-out: Viability rate): 38.7 ± 0.01%
- viability at 150 µM (K562; K562, 150 μM, MTT, read-out: Viability rate): 38.9 ± 0.01%
- viability at 200 µM (K562; K562, 200 μM, MTT, read-out: Viability rate): 38.7%
- IC50 (K562; K562, MTT, range 0.3–200 μM, six replicates): 35 µM
